Experimental findings from the NIST ThermoML archive (doi:10.1016/j.fluid.2018.07.018) are described below.

± gives the expanded uncertainty stated by the source.

The conditions of the data set: Crystal; DTA.

Turning to `CC(C)OC(=O)C(C)(C)Oc1ccc(C(=O)c2ccc(Cl)cc2)cc1` [fenofibrate], the Normal melting temperature was found to be 82.00 ± 1.1 °C.
